The source of these data is ChEMBL document CHEMBL1142841, “Synthesis and evaluation of anti-HIV activity of isatin beta-thiosemicarbazone derivatives” (Bioorg Med Chem Lett, 2005).

Test [1] has as its system Human immunodeficiency virus. As to the kind of experiment: Ratio of CC50 required to reduce the viability of mock-infected human CEM cells to EC50 required to inhibit HTLV-III B induced cytopathicity in that cells. It is filed as functional, Human immunodeficiency virus 1, CCRF-CEM. Background: Damage to the host cells serves as the signal in cytopathic effect assays.

Another test relates to CCRF-CEM. As to the kind of experiment: Concentration required to reduce the viability of mock-infected human CEM cells. It is filed as functional.
In test [2] the test system is Human immunodeficiency virus. As to the kind of experiment: Effective concentration required to inhibit HTLV-III B induced cytopathicity in human CEM cells. It is filed as functional, organism-based. To be noted: Human immunodeficiency virus 1, CCRF-CEM.

What is called CC50 is the concentration at which the toxic effect on the cells reaches its halfway point. A low value points to greater toxicity to the cells. As usually defined, the EC50 is the midpoint of the concentration-response curve. Turning to `CCN(CC)C(=S)N/N=C1\C(=O)N(CN2CCN(c3cccc(C(F)(F)F)c3)CC2)c2ccccc21`, the Selectivity index in test [1] is 17.14. Besides, the half-maximal cytotoxic concentration (CC50) in the test with CCRF-CEM was 44.9 µM. Moreover, a half-maximal effect in test [2] (EC50) was put at 2.62 µM.

For `CCN(CC)C(=S)N/N=C1\C(=O)N(CN2CCN(c3ncccn3)CC2)c2ccccc21`, the Selectivity index in test [1] is reported as under 1. This molecule registered a CC50 in the test on CCRF-CEM of 12.8 µM. The molecule also registered an EC50 in test [2] of over 12.8 µM.

Consider `CCN(CC)C(=S)N/N=C1\C(=O)N(CN2CC(C)OC(C)C2)c2ccccc21` (stereo not given), for which the Selectivity index in test [1] is recorded as under 1. Further, the midpoint of cytotoxicity with CCRF-CEM, the CC50, lay at 13.3 µM. Further, the EC50 in test [2] was over 13.3 µM.

`CCN(CC)C(=S)N/N=C1\C(=O)N(CN2CCN(c3cc4c(cc3F)c(=O)c(C(=O)O)cn4CC)CC2)c2ccccc21`: the Selectivity index in test [1] came to 12.02. For the same molecule, the midpoint of cytotoxicity with CCRF-CEM, the CC50, lay at 37.5 µM. The same molecule came in with an EC50 in test [2] of 3.12 µM.

Turning to `CCN(CC)C(=S)N/N=C1\C(=O)N(CN(Cc2ccccc2)Cc2ccccc2)c2ccccc21`, the Selectivity index in test [1] was under 1. The same molecule registered a CC50 with CCRF-CEM of 8.29 µM. In addition, the half-maximal effective concentration (EC50) in test [2] is over 8.29 µM.

On to `CCN(CC)C(=S)N/N=C1\C(=O)N(CN(C)C)c2ccccc21`, for which the Selectivity index in test [1] is listed as under 1. For the same molecule, the CC50 with CCRF-CEM was determined as 2.86 µM. The molecule further registered an EC50 in test [2] of over 2.86 µM.

For the molecule `CCN(CC)C(=S)N/N=C1\C(=O)N(CN2CCN(Cc3ccccc3)CC2)c2ccccc21`, the Selectivity index in test [1] is recorded as 4.12. For the same molecule, in the test with CCRF-CEM, the CC50 worked out at 14 µM. This molecule showed a half-maximal effective concentration (EC50) in test [2] of 3.4 µM.

`CCN(CC)C(=S)N/N=C1\C(=O)N(CN2CCN(c3ccc(F)cc3)CC2)c2ccccc21`: the Selectivity index in test [1] is reported as under 1. In addition, in the test on CCRF-CEM, the CC50 turned out to be 14.5 µM. In test [2], this molecule gave an EC50 of over 14.5 µM.

As for `CCN(CC)C(=S)N/N=C1\C(=O)N(CN2CCN(c3ccc([N+](=O)[O-])cc3)CC2)c2ccccc21`, in test [1], the Selectivity index is on record as under 1. The same molecule had a CC50 in the test with CCRF-CEM of 11.9 µM. The molecule also yielded an EC50 in test [2] of over 11.9 µM.

`O=C1Nc2ccc(Cl)cc2[C@@](C#CC2CC2)(C(F)(F)F)O1` [EFAVIRENZ]: the Selectivity index in test [1] is over 256. Moreover, the CC50 in the test on CCRF-CEM was over 200 µM. Also, the EC50 in test [2] is 0.78 µM.
